We go through six molecules from US10408836B2 (priority 2013, dated 2019).

Assay [1] deals with A/Florida/21/08 (H1N1/08-R) neuraminidase (Influenza A virus, UniProt G3LYR2). Conditions: pH 6, 25000 µM.
Assay [2] addresses S. pneumoniae ATCC 6305 (Strep 6) NanA (Streptococcus pneumoniae, UniProt P62575). To be noted: pH 7.
The target of assay [3] is B/Memphis/20/96 (Vict/96-R) neuraminidase (Influenza B virus, UniProt C7FPS7). To be noted: pH 7, 25000 µM.
Assay [4] concerns the target A/Brisbane/10/07-Like (H3N2/07-S) neuraminidase (Influenza A virus, UniProt A8W8R2). It is filed as biochemical. To be noted: pH 7, 25000 µM.
The target in assay [5] is S. pneumoniae ATCC 49619 (Strep 4) NanA (Streptococcus pneumoniae, UniProt P62575). To be noted: pH 7.
Assay [6] deals with A/Brisbane/59/07-Like (H1N1/07-R) neuraminidase (Influenza A virus, UniProt D5F1R0). To be noted: pH 6, 25000 µM.
Assay [7] has as its target Recombinant N1 protein A/California/04/09 (N1pdm/09-R) (Influenza A virus (H1N1), UniProt C3W5S3). Conditions: pH 6, 25000 µM.
Assay [8] concerns the target Parainfluenza virus Type 2 NA (Human parainfluenza 2 virus, UniProt P25465). Conditions: pH 5.
The target of assay [9] is B/Florida/04/06 (Yama/08-S) neuraminidase (Influenza B virus, UniProt J7JZU5). Nature of the assay: biochemical. Conditions: pH 7, read-out: % of max NA act. + EDTA (pH).
Assay [10] has as its target A/Texas/12/07 (H3N2/07-R) neuraminidase (Influenza A virus, UniProt D1FVK3).
The target of assay [11] is B/Brisbane/60/08 (Vict/06-S) neuraminidase (Influenza B virus, UniProt C0LT34). In words: biochemical. To be noted: pH 7, read-out: % of max NA act. + EDTA (pH).
For assay [12], the target named is Recombinant N1 protein A/Anhui/01/05 (N1/05-S) (Influenza A virus, UniProt D0PQ82). Nature of the assay: biochemical. Conditions: pH 6, read-out: % of max NA act. + EDTA (pH).
Assay [13] has as its target A/California/07/09 (H1N1pdm/09-S) neuraminidase (Influenza A virus, UniProt C3W6G3). In words: biochemical. To be noted: pH 6, read-out: % of max NA act. + EDTA (pH).
Assay [14] addresses A/North Carolina/39/09 (H1N1pdm/09-R) neuraminidase (Influenza A virus, UniProt C3W6G3). Conditions: pH 6, 25000 µM.
In assay [15] the target is Recombinant N1 protein A/California/04/09 (N1pdm/09-S) (Influenza A virus (H1N1), UniProt C3W5S3). Nature of the assay: biochemical. To be noted: pH 6, read-out: % of max NA act. + EDTA (pH).
Assay [16] deals with NanA of S. pneumoniae. It is filed as biochemical. Conditions: pH 7.
Assay [17] deals with NA of influenza. Type of assay: biochemical. Conditions: pH 7.
For assay [18], the system named is influenza virus. It is filed as binding.
Assay [19] relates to H3N2/07-R. It is filed as binding, influenza A.

Regarding `O=C(O)CN(CCN(CC(=O)O)CC(=O)O)CC(=O)O` [EDTA, ethylenediaminetetraacetic acid], the “% of max NA act. + EDTA (pH)” value in assay [1] is listed as 36%; in assay [2], 112%; in assay [3], 25%; in assay [4], 50%; in assay [5], 108%; in assay [6], 54%. Moreover, the “% of max NA act. + EDTA (pH)” value turned out to be 94% in assay [7]; 27% in assay [8]; 61% in [10] (pH 7, 25000 µM); 63% in [14]. For the same molecule, the activity at 25000 µM in [9] turned out to be 88%; in assay [11] it was 92%; in assay [12], 43%; in assay [13], 44%; in assay [15], 94%.
In the case of `O=S(=O)(O)CCNC1CCCCC1` [CHES, N-cyclohexyl-2-aminoethanesulfonic acid], in assay [16], the “NanA activity of S. pneumoniae in presence of buffer” value is reported as “severely reduced”; the “NanA inhibition by sulfonic acid-containing buffer” value is “susceptibility to CHES and CAPS inhibition”. Moreover, the “NA enzymatic activity of influenza in presence of buffer” value in [17] is given as “substantially resistant”.
Regarding “MBL: mannose-binding lectin, recombinant host protein used as capturing agent”, in assay [18], the “limit of detection: virus dilution at which virus is captured” value is on record as 270-450 fold dilution and the “viral capture, ranking of receptors” value is recorded as “best capturing factor among all mannose binding receptors”. Besides, the “limit of detection: virus dilution” value in [19] was 450 fold dilution.
In the case of `O=S(=O)(O)CCCNC1CCCCC1` [CAPS, N-cyclohexyl-3-aminopropanesulfonic acid], the “NanA inhibition by sulfonic acid-containing buffer” value in assay [16] was “susceptibility to CHES and CAPS inhibition”.
By IC50 is commonly meant the concentration that gives 50% inhibition. Low readings indicate greater potency, high ones weaker potency. On to `CC(=O)N[C@H]1[C@H]([C@H](O)[C@H](O)CO)OC(C(=O)O)=C[C@@H]1N=C(N)N` [Zan, Zanamivir], for which, in assay [10], 2.6 nM corresponded to half-maximal inhibition (IC50).

B1: Fetuin: highly sialylated protein isolated from bovine serum, used as capturing agent (protein, UniProt P12763 19-359, looked up)
Alpha-2-HS-glycoprotein: IPLDPVAGYKEPACDDPDTEQAALAAVDYINKHLPRGYKHTLNQIDSVKVWPRRPTGEVYDIEIDTLETTCHVLDPTPLANCSVRQQTQHAVEGDCDIHVLKQDGQFSVLFTKCDSSPDSAEDVRKLCPDCPLLAPLNDSRVVHAVEVALATFNAESNGSYLQLVEISRAQFVPLPVSVSVEFAVAATDCIAKEVVDPTKCNLLAEKQYGFCKGSVIQKALGGEDVRVTCTLFQTQPVIPQPQPDGAEAEAPSAVPDAAGPTPSAAGPPVASVVVGPSVVAVPLPLHRAHYDLRHTFSGVASVESSSGEAFHVGKTPIVGQPSIPGGPVRLCPGRIRYFKI
Take B1: in assay [18], the “limit of detection: virus dilution at which virus is captured” value is on record as 150-450 fold dilution. In addition, the “limit of detection: virus dilution” value in assay [19] came out at 30 fold dilution.
